Test [1] concerns TMD8 cells. Kind of test: Tumor cell proliferation inhibition, CCK-8 kit, 96 h. Type of test: cell-based. Particulars: Homo sapiens, TMD8, 96 h, read-out: IC50 for inhibiting the proliferation of tumor cells, TMD8 cell. The method, then:
(§1) The tumor cells used herein were cultured in RPMI 1640 medium supplemented with 10% FBS, penicillin to a final concentration of 100 U/mL, and streptomycin to a final concentration of 100 μg/mL, at 37° C. in an incubator with 5% CO2. Prior to experimentation, all cells used were correctly identified by STR profiling, and tested negative for Mycoplasma through routine screenings.
(§2) After 24 h, 100 μL of the inoculated cells were treated with 0.5 μL of the compounds of the present disclosure (including the compounds in Table 1, and Examples compounds) in DMSO at 10 different successively decreasing concentrations (starting at a maximum concentration of 10 μM; 5-fold serial dilutions). […] The growth inhibition of the compounds of the present disclosure on the cells was plotted using Prism Graphpad software, and the IC50 values of the compounds of the present disclosure were calculated.
A general note: Tetrazolium assays rely on reduction of a dye to a coloured formazan, in cell work by metabolically active cells.

The test system of test [2] is Mino cells. Described as above. Type of test: cell-based. Particulars: Homo sapiens, MINO, read-out: IC50 for inhibiting the proliferation of tumor cells, Mino cell. The method, then: as §1, §2
Test [3] relates to Daudi cells. The test is described as above. Type of test: cell-based. Particulars: Homo sapiens, Daudi, read-out: IC50 for inhibiting the proliferation of tumor cells, Daudi cell. As for the experimental part: as §1, §2
For test [4], the system named is MM.1S cells. The test is described as above. Type of test: cell-based. Particulars: Homo sapiens, MM1.S, read-out: IC50 for inhibiting the proliferation of tumor cells, MM.1S cell. The method, then: as §1, §2
Test [5] deals with IKZF1 protein (Homo sapiens (Human), UniProt Q13422+Q96SW2). Nature of the test: Western blot, substrate protein degradation in hPBMC. The conditions noted are these: 24 h, 50 nM. Type of test: cell-based. The text has this:
(§3) The supernatant, containing the total cellular protein, was aspirated.

Test [6] has as its target IKZF3 protein (Homo sapiens (Human), UniProt Q96SW2+Q9UKT9). The test is described as above. Type of test: cell-based. Particulars: 24 h, 50 nM.
Text: as §3

Test [7] addresses GSPT1 protein (Homo sapiens (Human), UniProt P15170+Q96SW2). The conditions noted are these: hPBMC, 24 h, 50 nM.
Text: as §3

Sequence of IKZF1 protein (Q13422 whole entry): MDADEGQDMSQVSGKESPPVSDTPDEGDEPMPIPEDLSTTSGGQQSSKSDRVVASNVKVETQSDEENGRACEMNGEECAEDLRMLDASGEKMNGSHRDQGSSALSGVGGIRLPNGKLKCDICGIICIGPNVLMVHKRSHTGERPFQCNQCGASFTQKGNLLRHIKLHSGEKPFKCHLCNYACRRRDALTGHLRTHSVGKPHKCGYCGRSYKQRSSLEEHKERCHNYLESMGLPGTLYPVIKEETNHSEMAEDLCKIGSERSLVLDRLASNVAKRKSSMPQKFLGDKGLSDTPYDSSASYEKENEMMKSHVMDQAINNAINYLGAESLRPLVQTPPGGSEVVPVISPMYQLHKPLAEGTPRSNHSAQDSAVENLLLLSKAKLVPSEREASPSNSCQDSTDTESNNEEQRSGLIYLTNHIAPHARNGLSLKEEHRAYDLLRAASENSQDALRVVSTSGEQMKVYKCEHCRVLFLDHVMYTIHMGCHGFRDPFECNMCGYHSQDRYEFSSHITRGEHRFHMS
Sequence of IKZF1 protein (Q96SW2 whole entry): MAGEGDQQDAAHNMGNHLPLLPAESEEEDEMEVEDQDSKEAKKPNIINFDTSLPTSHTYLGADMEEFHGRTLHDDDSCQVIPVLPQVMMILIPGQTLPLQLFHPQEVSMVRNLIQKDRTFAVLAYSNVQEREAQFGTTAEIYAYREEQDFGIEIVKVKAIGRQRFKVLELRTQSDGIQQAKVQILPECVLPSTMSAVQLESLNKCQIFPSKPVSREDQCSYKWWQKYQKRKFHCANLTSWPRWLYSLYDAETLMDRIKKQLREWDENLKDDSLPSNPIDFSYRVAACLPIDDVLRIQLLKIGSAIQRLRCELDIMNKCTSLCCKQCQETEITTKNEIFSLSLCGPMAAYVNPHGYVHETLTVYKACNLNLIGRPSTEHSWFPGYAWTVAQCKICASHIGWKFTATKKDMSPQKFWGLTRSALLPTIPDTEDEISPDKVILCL
Sequence of IKZF1 protein (Q16531 whole entry partner): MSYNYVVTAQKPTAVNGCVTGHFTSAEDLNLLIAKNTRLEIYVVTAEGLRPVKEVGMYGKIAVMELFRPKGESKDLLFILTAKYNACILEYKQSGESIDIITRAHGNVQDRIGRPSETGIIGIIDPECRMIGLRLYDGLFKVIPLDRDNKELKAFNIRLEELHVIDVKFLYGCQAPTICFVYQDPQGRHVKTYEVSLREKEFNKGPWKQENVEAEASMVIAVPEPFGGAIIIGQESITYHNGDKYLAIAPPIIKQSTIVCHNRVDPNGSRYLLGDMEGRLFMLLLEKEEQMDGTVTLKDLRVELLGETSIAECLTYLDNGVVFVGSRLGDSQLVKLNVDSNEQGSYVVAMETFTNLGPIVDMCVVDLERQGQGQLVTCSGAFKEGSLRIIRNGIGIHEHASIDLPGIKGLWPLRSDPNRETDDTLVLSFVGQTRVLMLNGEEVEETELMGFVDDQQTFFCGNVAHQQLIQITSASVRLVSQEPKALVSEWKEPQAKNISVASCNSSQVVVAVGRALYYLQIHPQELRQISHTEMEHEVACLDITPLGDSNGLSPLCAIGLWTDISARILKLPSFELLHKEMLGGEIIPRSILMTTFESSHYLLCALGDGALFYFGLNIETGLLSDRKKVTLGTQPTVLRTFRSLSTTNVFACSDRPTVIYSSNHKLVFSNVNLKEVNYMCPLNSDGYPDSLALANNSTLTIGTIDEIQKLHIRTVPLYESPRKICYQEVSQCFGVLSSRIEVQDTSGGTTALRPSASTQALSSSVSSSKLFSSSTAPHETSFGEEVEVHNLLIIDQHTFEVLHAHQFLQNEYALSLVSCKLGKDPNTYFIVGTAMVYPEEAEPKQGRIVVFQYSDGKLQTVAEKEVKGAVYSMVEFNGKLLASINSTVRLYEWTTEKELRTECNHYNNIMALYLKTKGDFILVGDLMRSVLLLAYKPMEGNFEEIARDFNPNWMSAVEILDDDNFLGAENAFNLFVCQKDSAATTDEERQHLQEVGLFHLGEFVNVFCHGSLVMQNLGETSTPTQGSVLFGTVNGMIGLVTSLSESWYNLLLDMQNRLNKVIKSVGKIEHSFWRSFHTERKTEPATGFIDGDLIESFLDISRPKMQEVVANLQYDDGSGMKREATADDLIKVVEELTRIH
Sequence of GSPT1 protein (P15170 whole entry, looked up): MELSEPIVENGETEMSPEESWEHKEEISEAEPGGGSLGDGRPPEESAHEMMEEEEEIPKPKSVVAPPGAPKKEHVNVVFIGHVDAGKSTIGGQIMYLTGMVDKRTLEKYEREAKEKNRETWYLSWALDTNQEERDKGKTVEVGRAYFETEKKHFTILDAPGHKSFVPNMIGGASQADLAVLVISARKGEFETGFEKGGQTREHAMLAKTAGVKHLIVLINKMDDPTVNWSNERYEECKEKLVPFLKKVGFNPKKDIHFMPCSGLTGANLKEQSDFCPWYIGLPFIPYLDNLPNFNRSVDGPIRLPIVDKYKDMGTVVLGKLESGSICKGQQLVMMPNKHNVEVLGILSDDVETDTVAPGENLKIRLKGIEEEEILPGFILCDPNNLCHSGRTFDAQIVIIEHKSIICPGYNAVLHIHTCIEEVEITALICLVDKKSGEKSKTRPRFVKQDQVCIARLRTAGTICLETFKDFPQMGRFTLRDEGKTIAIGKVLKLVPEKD
Sequence of GSPT1 protein (Q96SW2 whole entry, looked up): as the sequence (Q96SW2 whole entry) above
Sequence of GSPT1 protein (Q16531 whole entry partner, looked up): as the sequence (Q16531 whole entry partner) above
Sequence of IKZF3 protein (Q9UKT9 whole entry): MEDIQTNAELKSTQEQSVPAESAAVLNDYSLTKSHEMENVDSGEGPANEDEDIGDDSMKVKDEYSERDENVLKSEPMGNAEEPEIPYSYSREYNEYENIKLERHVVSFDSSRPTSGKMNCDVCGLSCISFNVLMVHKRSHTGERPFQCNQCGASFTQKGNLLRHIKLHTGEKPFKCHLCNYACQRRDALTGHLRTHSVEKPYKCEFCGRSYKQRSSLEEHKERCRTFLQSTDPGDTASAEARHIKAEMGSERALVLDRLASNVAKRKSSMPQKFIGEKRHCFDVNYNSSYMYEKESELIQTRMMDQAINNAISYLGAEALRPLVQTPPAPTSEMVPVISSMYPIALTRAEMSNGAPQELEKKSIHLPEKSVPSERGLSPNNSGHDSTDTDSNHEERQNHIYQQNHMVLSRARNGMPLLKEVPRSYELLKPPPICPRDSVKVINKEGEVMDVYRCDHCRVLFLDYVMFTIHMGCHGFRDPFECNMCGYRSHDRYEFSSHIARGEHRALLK
Sequence of IKZF3 protein (Q96SW2 whole entry): as the sequence (Q96SW2 whole entry) above
Sequence of IKZF3 protein (Q16531 whole entry partner): as the sequence (Q16531 whole entry partner) above

On to `Nc1cccc2c1C(=O)N(C1CCC(=O)NC1=O)C2=O` (stereo not shown) [pomalidomide, reference compound], for which the IC50 was in the range of 100 to 500 nM in test [1], 100 to 500 nM in test [2], 1000 to 5000 nM in test [3] and 100 to 500 nM in test [4]. For the same compound, the “degradation of IKZF1 protein” value in test [5] is given as “does not degrade”. Also, the “degradation of IKZF3 protein” value in test [6] is on record as “does not degrade”. The “degradation of GSPT1 protein” value in test [7] was “does not degrade”.

For the origin of these results see US20250268906A1, “MOLECULAR GLUE COMPOUND BASED ON CEREBLON PROTEIN DESIGN AND USE THEREOF” (GLUETACS THERAPEUTICS (SHANGHAI) CO., LTD., priority 2022, published 2025).
